Patent publication EP0337459A2, “Platinum complex, process for preparing same and antitumor agent” (TORAY INDUSTRIES, INC., priority 1988, dated 1989)
Values joined by “and” are separate entries in the source; they are usually repeats but may differ in a detail not shown here. Identical values can stand only once.

Columns and labels:
L1210 Mouse Leukemia = test: Antitumor activity against L1210 mouse leukemia inoculated i.p. in mice; assay type: in vivo, CDF₁ mouse; details: for Survival days (mean ± standard deviation) / T/C (%): CDF₁ mice; for Survival rate: living mice on the 30th day / mice in group
Procedure: Approximately 10⁵ cells of mouse leukemia L1210 which had been subcultured in DBA/2 mice were inoculated into the abdominal cavity of CDF₁ mouse (male, 6 weeks old, each group consisting of 6 to 10 mice). […] CDDP and CBDCA were tested as the positive control. Each complex tested was used in the form of a solution or suspension in 0.05% "Tween 80"-saline or in distilled water. Antitumor activity was evaluated based on the T/C value, calculated according to the following formula: [formula] The number of living mice was also recorded on the 30th day.

Slc:ICR mice = test: Acute toxicity test in mice (LD50, Miller-Tainter method); assay type: in vivo; details: intraperitoneal, Slc:ICR mice (male), death rate on the 14th day
Procedure: The acute toxicity test of the compounds of the present invention to mice were carried out by using CDDP as the control. Platinum complexes to be tested was administered intraperitoneally to Slc:ICR mice (male, 5 weeks old, 6 mice/group). Each complex was used in the form of a solution or suspension in a 0.05% "Tween 80" - saline. The LD₅₀ value was calculated by the Miller-Tainter method from the death rate on the 14th day from the date of the administration.

[1] = dose 1 mg/kg i.p. on Day 1, 5 and 9
[2] = dose 10 mg/kg i.p. on Day 1, 5 and 9
[3] = dose 25 mg/kg i.p. on Day 1, 5 and 9
[4] = dose 50 mg/kg i.p. on Day 1, 5 and 9
[5] = dose 100 mg/kg i.p. on Day 1, 5 and 9
[6] = dose 200 mg/kg i.p. on Day 1, 5 and 9
[7] = dose 5 mg/kg i.p. on Day 1, 5 and 9
[8] = dose 2.5 mg/kg i.p. on Day 1, 5 and 9, 2.5 mg/kg
[9] = dose 5 mg/kg i.p. on Day 1, 5 and 9, 5 mg/kg
[10] = dose 7.5 mg/kg i.p. on Day 1, 5 and 9, 7.5 mg/kg

Row | Molecule | Survival days (mean ± standard deviation) (L1210 Mouse Leukemia; [1]) [days] | T/C (%) (L1210 Mouse Leukemia; [1]) | Survival days (mean ± standard deviation) (L1210 Mouse Leukemia; [2]) [days] | T/C (%) (L1210 Mouse Leukemia; [2]) | Survival days (mean ± standard deviation) (L1210 Mouse Leukemia; [3]) [days] | T/C (%) (L1210 Mouse Leukemia; [3]) | Survival days (mean ± standard deviation) (L1210 Mouse Leukemia; [4]) [days] | T/C (%) (L1210 Mouse Leukemia; [4]) | Survival days (mean ± standard deviation) (L1210 Mouse Leukemia; [5]) [days] | T/C (%) (L1210 Mouse Leukemia; [5]) | Survival days (mean ± standard deviation) (L1210 Mouse Leukemia; [6]) [days] | T/C (%) (L1210 Mouse Leukemia; [6]) | Survival rate (L1210 Mouse Leukemia; [1]) | Survival rate (L1210 Mouse Leukemia; [2]) | Survival rate (L1210 Mouse Leukemia; [3]) | Survival rate (L1210 Mouse Leukemia; [4]) | Survival rate (L1210 Mouse Leukemia; [5]) | Survival rate (L1210 Mouse Leukemia; [6]) | LD₅₀ Value (Slc:ICR mice) [mg/kg] | further results
1 | N.N.O=C([O-])C1(C(=O)[O-])CCC1.[Pt+2] [CBDCA, Platinum(II) cis-diamine-1,1-cyclobutanedicarboxylate, reference compound] | 8.3 ± 0.5 | 98 | 9.3 ± 0.5 | 109 | 10.1 ± 1.3 | 119 | 13.1 ± 2.3 | 156 | 14.1 ± 3.7 | 166 | 9.6 ± 0.7 | 113 | 0/10 | 0/10 | 0/10 | 0/10 | 0/10 | 0/10 | – | –
2 | [Pt(trans-ℓ-1,2-diaminocyclohexane)] (3-acetyl-6-methyl-2H-pyran-2,4(3H)-dione)₂·H₂O [Example 2] | 8.7 ± 0.5 | 104 | 13.8 ± 3.6 | 164 | 19.7 ± 7.5 | 235 | 10.0 ± 1.1 | 119 | 6.3 ± 2.0 | 75 | 2.8 ± 1.6 | 33 | 0/6 | 0/6 | 1/6 | 0/6 | 0/6 | 0/6 | 61 | –
3 | [Pt(trans-ℓ-1,2-diaminocyclohexane)] (3-acetyl-6-methyltetrahydropyran-2,4-dione)₂·H₂O [Example 1] | 8.5 ± 0.5 | 101 | 11.5 ± 1.2 | 137 | 14.2 ± 3.2 | 169 | 17.0 ± 3.0 | 202 | 15.5 ± 5.0 | 185 | 6.0 | 71 | 0/6 | 0/6 | 0/6 | 0/6 | 0/6 | 0/6 | 98 | –
4 | [Pt(trans-ℓ-1,2-diaminocyclohexane)](3-acetyl-6-methyl-2H-pyran-2,4(3H)-dione)(NO₃)·H₂O [Example 14] | 8.2 ± 0.4 | 98 | 11.3 ± 0.8 | 135 | 19.0 ± 8.5 | 226 | 18.0 ± 6.2 | 214 | 9.5 ± 1.2 | 113 | 5.0 | 60 | 0/6 | 0/6 | 2/6 | 1/6 | 0/6 | 0/6 | 73 | –
5 | [Pt(trans-ℓ-1,2-diaminocyclohexane)](3-acetyl-6-methyltetrahydropyran-2,4-dione) (C₃H₇COO)·H₂O [Example 5] | 8.8 ± 1.6 | 104 | 10.2 ± 1.6 | 120 | 11.8 ± 1.7 | 139 | 16.3 ± 5.0 | 192 | 14.2 ± 5.0 | 167 | – | – | 0/6 | 0/6 | 0/6 | 0/6 | 0/6 | – | 111 | –
6 | [Pt(trans-ℓ-1,2-diaminocyclohexane)](3-acetyl-6-methyltetrahydropyran-2,4-dione)(CH₃COO)·H₂O [Example 3] | 9.2 ± 1.0 | 110 | 14.0 ± 2.6 | 167 | 23.0 ± 6.4 | 274 | 15.2 ± 4.1 | 181 | 7.7 ± 1.5 | 91 | 3.0 ± 2.0 | 36 | 0/6 | 0/6 | 2/6 | 0/6 | 0/6 | 0/6 | 61 | Survival days (mean ± standard deviation) (L1210 Mouse Leukemia; [7]): 12.8 ± 3.0 days; T/C (%) (L1210 Mouse Leukemia; [7]): 152%; Survival rate (L1210 Mouse Leukemia; [7]): 0/6
7 | cis-diamminedichloroplatinum (II) [CDDP, reference compound] | – | – | – | – | – | – | – | – | – | – | – | – | – | – | – | – | – | – | 15.3 | Survival days (mean ± standard deviation) (L1210 Mouse Leukemia; [8]): 15.2 ± 1.9 days and 12.0 ± 3.0 days and 13.0 ± 3.1 days and 10.5 ± 1.8 days; T/C (%) (L1210 Mouse Leukemia; [8]): 181% and 143% and 153% and 125%; Survival days (mean ± standard deviation) (L1210 Mouse Leukemia; [9]): 18.5 ± 6.0 days and 14.3 ± 2.9 days and 18.2 ± 0.4 days and 15.5 ± 1.4 days; T/C (%) (L1210 Mouse Leukemia; [9]): 220% and 170% and 214% and 185%; Survival days (mean ± standard deviation) (L1210 Mouse Leukemia; [10]): 17.0 ± 2.2 days and 15.5 ± 2.1 days and 20.2 ± 4.8 days and 22.3 ± 3.9 days; T/C (%) (L1210 Mouse Leukemia; [10]): 202% and 185% and 238% and 266%; Survival rate (L1210 Mouse Leukemia; dose 2.5 mg/kg i.p. on Day 1, 5 and 9): 0/6; Survival rate (L1210 Mouse Leukemia; [9]): 1/6 and 0/6; Survival rate (L1210 Mouse Leukemia; [10]): 0/6 and 1/6
